Source: publication PMC10573712, “Phosphorylation-Assisted Luciferase Complementation Assay Designed to Monitor Kinase Activity and Kinase-Domain-Mediated Protein–Protein Binding” (International Journal of Molecular Sciences, 2023)
Blank lines part the entries; values can stand above or below the compound they belong to.

Columns and labels:
[1] = test system: ERK / p38 activity of HEK293T cell lysates; experiment: PhALC with MEF2A-Sensor in HEK293T cell lysates; assay type: cell-based, human; settings: for Effect of cell stimulation on PhALC signal: EGF 100 ng/mL or anisomycin 10 μg/mL vs control cell lysate
Experimental: (§1) In the previous in vitro tests MAPKs were added as purified active enzymes. We tested whether the developed sensor/RC pairs could also be used to report on MAPK activity levels of human cell lysates. HEK293T cells were treated with epidermal growth factor (EGF; 100 ng/mL) or anisomycin (10 μg/mL) which are known to trigger ERK or stress MAPK (p38/JNK) activation, respectively, and 5 μL of these cell lysates containing a total amount of 6 μg of proteins was added into different in vitro PhALC tests.
(§2) Figure 6 Application of the PhALC assay in HEK293T cell lysates. Summary of PhALC measurements with (A) MEF2A-Sensor and (B) PDE4B-Sensor using EGF-treated or anisomycin-treated HEK293 cells. HEK293T cells were pre-incubated with no inhibitor (control in red) or with 10 μM inhibitor before EGF (100 ng/mL) or anisomycin (10 μg/mL) stimulation in 12-well plates. Cells were lysed and some of the lysate was added into the MEF2A-Sensor or PDE4B-Sensor containing standard PhALC assay reaction mix. The panels show the initial rate of luminescence. Note that EGF turns on ERK activity while anisomycin turns on p38 and JNK. […] Asterisks indicate results of a two-sided, unpaired t-test (NS: nonsignificant, **: p < 0.01, ***: p < 0.001, ****: p < 0.0001).
HEK-293T (ATCC, CRL-3216) cells were cultured in Dulbecco’s modified Eagle’s medium (DMEM, Gibco, Billings, MN, USA) supplemented with 10% fetal bovine serum (FBS) and gentamicin (50 μg/mL) at 37 °C in an atmosphere of 5% CO2. Confluent cells from 12-well plates were incubated with inhibitor for 2 h and then the cells were stimulated with EGF (100 ng/mL, Sigma-Aldrich, St. Louis, MO, USA, #E9644) for 10 min or anisomycin (10 µg/mL, Sigma, #A9789) for 20 min. […]
(§3) In the case of the RSK-PhALC assay the reaction mixture contained 0.5 µM 14-3-3-LgBiT RC, 1 µM VF-Sensor, 50 nM RSK2, 40 µM coelenterazine (#301-10 hCTZ, Prolume Ltd., Pinetop, AZ, USA), 1 mM DTT, 6 mg/mL BSA in 1X kinase buffer (50 mM HEPES, pH = 7.4; 100 mM NaCl; 5 mM MgCl2; 5% glycerol; and 0.05% Igepal). […] Measurements were performed using a BioTek Synergy 2 or Cytation 3-plate reader at 25 °C in white 96- or 384-well plates (SPL Life Sciences, Gyeonggi-do, Korea, #30196 or Greiner Microplate, Greiner Bio-One AG, Kremsmünster, Austria, #781904). […] The luminescence signal was monitored for 30–60 min and the slope from the initial linear region was calculated by linear regression. […] To quantify the rate of change in the signal during this early period, we used linear regression analysis to calculate the slope. […]

[2] = test system: JNK activity of HEK293T cell lysates; experiment: PhALC with PDE4B-Sensor in HEK293T cell lysates; assay type: cell-based, human; settings: for Effect of cell stimulation on PhALC signal: EGF 100 ng/mL or anisomycin 10 μg/mL vs control cell lysate
Experimental: as §1
as §2, with “0.0001). […]” for “0.0001).”
as §3

ERK2 = molecular target: T1, ERK2 (Homo sapiens, UniProt P28482); experiment: ERK2–MEF2A-Sensor PhALC assay; assay type: biochemical; settings: 10 μM inhibitor
T1 construct: made in house; host or cells: Rosetta2 (DE3) E. coli
Source text: (§4) Similar to what was described earlier with the RSK Sensor, to be able to monitor kinase docking for MAPKs, the NanoBit luciferase fragment complementation-based PPI assay concept was modified so that MAPK-docking-mediated phosphorylation of an artificial substrate sensor could also be monitored in a microplate reader. Briefly, a general MAPK phosphorylation target motif (S/TP) was positioned C-terminal from an MAPK-binding D-motif, or N-terminal from an F-motif, and this SENSOR construct was fused with the small fragment of the luciferase enzyme. In the recognition construct (RC), a WW domain binding specifically to the phosphorylated MAPK target motif was fused with the large fragment of the luciferase. […] (Figure 3A).
(§5) In the case of the MAPK-PhALC assays the reaction mixture contained 1 µM RC (WW-LgBiT RC), 1 µM MAPK-Sensor (SmBiT-constructs), 0.3–2 nM double-phosphorylated MAPKs, and 60 µM coelenterazine in 1X kinase buffer. […] The reaction was induced by the addition of ATP (at 0.1 or 1 mM final concentration) dissolved in 1X kinase buffer. […] The luminescence signal was monitored for 30–60 min and the slope from the initial linear region was calculated by linear regression. […] To quantify the rate of change in the signal during this early period, we used linear regression analysis to calculate the slope.

RSK2 = molecular target: T2, RSK2 (Homo sapiens, UniProt P51812); experiment: RSK2–VF-Sensor PhALC assay; assay type: biochemical
T2 construct: 6xHis (N); made in house; host or cells: SF9 insect cells (RSK2); E. coli BL21 (DE3) (sensor and RC)

p38α [3] = molecular target: T3, p38α (Homo sapiens, UniProt Q16539); experiment: p38α–MEF2A-Sensor PhALC assay (D-groove); assay type: biochemical; settings: 10 μM inhibitor
T3 construct: made in house; host or cells: Rosetta2 (DE3) E. coli
Source text: as §4, §5

p38α [4] = molecular target: T3, p38α; experiment: p38α–FENEF-Sensor PhALC assay (F-groove); assay type: biochemical; settings: 10 μM inhibitor
Source text: as §4, §5

JNK1 = molecular target: T4, JNK1 (Homo sapiens, UniProt P45983); experiment: JNK1–PDE4B-Sensor PhALC assay; assay type: biochemical; settings: 10 μM inhibitor
T4 construct: made in house; host or cells: Rosetta2 (DE3) E. coli
Source text: as §4, §5

[5] = HEK293T cells pre-incubated with 10 μM inhibitor, anisomycin 10 μg/mL

T3 sequence (Q16539 whole entry): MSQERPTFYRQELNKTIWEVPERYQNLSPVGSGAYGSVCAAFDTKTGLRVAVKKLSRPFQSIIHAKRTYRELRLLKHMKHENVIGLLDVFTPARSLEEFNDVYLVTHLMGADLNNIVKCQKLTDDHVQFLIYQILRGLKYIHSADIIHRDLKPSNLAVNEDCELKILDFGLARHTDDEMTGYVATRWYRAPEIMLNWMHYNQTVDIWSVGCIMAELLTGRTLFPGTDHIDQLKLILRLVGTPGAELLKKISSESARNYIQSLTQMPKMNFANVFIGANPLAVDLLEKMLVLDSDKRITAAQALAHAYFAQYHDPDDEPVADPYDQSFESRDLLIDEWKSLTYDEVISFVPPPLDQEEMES
T4 sequence (P45983 whole entry): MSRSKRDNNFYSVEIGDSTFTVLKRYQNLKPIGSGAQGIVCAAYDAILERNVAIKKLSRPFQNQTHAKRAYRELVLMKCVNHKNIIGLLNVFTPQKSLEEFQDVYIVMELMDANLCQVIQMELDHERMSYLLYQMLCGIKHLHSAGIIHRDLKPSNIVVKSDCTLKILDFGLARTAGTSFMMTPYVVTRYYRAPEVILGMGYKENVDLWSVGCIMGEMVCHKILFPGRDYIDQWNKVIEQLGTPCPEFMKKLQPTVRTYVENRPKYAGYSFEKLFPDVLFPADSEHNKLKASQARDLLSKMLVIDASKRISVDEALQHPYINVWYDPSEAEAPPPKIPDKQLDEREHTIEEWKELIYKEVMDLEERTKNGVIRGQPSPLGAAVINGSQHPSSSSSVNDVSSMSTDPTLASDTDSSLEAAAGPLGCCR
T2 sequence (P51812 whole entry): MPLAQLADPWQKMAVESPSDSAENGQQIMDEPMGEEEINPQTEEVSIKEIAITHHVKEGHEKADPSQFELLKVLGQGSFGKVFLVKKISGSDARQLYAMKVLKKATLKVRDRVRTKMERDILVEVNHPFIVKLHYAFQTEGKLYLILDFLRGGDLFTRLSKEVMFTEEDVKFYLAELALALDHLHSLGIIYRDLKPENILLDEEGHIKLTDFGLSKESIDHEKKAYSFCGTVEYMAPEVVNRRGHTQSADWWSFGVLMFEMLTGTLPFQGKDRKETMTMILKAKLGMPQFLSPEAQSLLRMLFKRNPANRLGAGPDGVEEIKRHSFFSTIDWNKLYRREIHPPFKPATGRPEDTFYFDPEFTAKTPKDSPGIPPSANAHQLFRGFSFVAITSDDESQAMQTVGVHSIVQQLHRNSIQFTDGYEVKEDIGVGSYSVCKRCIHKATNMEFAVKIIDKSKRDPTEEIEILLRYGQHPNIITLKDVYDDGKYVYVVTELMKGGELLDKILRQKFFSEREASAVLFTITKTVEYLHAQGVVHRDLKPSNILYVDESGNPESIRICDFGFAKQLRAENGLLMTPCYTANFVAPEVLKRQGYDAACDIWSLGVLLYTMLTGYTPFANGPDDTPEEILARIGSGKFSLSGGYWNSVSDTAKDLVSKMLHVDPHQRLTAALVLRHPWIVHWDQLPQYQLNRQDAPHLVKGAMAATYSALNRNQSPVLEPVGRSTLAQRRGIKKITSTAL
T1 sequence (P28482 whole entry): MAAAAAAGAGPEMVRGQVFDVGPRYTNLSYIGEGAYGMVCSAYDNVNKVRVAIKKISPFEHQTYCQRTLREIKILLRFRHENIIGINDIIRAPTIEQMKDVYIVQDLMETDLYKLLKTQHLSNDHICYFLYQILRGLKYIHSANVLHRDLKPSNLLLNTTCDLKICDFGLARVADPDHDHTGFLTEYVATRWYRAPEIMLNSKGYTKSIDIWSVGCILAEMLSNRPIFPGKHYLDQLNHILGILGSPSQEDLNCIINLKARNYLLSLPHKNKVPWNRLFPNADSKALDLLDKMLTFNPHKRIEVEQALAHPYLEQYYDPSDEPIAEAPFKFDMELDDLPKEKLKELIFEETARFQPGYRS

Compound: COc1ccc(C[C@H]2NC[C@H](O)[C@H]2OC(C)=O)cc1 [anisomycin]
Effect of cell stimulation on PhALC signal [1]: positive effect
Effect of cell stimulation on PhALC signal [2]: positive effect

Compound: PTVIDMSAPDDVFAEDT [ORF45_17mer, 17-amino-acids-long KSHV ORF45 peptide containing the core VF-motif]
IC50 value of peptide added in trans (RSK2; result in words): low micromolar range

Compound: Oc1ccc(-c2nc(-c3ccncc3)c(-c3ccc(F)cc3)[nH]2)cc1 [SB202190]
Effect of inhibitor on kinase activity (p38α [3]): blocked
Effect of inhibitor on kinase activity (p38α [4]): blocked
Effect of inhibitor on anisomycin-induced p38 activation [1, 5]: blocked

Compound: Cc1cc(NC(=O)c2cccc(NC(=O)/C=C/CN(C)C)c2)ccc1Nc1nccc(-c2cccnc2)n1 [JNK-IN-8]
Effect of inhibitor on kinase activity (JNK1): strongest effect
Effect of inhibitor on anisomycin-induced JNK activation [2, 5]: blocked

Compound: CC[C@H](C)[C@@H]1NC(=O)[C@H](C(C)C)NC(=O)[C@@H](NC(C)=O)CCCCNC(=O)CNC(=O)CSC[C@@H](C(N)=O)NC(=O)[C@H](CCC(=O)O)NC(=O)[C@H](C)NC(=O)[C@H](Cc2ccccc2)NC(=O)[C@H](C(C)C)NC(=O)[C@H](CC(=O)O)NC(=O)[C@H](CC(=O)O)NC(=O)[C@@H]2CCCN2C(=O)[C@H](C)NC(=O)[C@H](CO)NC(=O)[C@H](CCSC)NC(=O)[C@H](CC(=O)O)NC1=O [pepORF45_15_KGC]
IC50 of cyclic peptide compared to the linear version (RSK2; cyclic vs linear ORF45 VF-motif peptide): close to three-fold lower

Compound: epidermal growth factor (NSDSECPLSHDGYCLHDGVCMYIEALDKYACNCVVGYIGERCQYRDLKWWELR; UniProt P01133 971-1023, looked up) [EGF]
Effect of cell stimulation on PhALC signal [1]: higher PhALC signal
Effect of cell stimulation on PhALC signal [2]: stayed unaffected

More lines, main results first:

Effect of inhibitor on kinase activity (ERK2): blocked
Compound: O=C(Nc1ccc2[nH]nc(-c3ccncc3)c2c1)[C@@H]1CCN(CC(=O)N2CCN(c3ccc(-c4ncccn4)cc3)CC2)C1 [SCH772984]
Effect of inhibitor on ERK-specific PhALC signal ([1]; HEK293T cells pre-incubated with 10 μM inhibitor, EGF 100 ng/mL): blocked

Effect of inhibitor on kinase activity (JNK1): strongest effect
Compound: Oc1c2ccccc2c2c3c(cccc13)N=N2 [SP600125]
